Data: patent US20130053381A1, “2,4-DIOXO-1,4-DIHYDRO-2H-QUINAZOLIN-3-YL-SULFONAMIDE DERIVATIVES” (NOVARTIS AG, priority 2010, published 2013)

Test system: OF1 mice
Assay: Maximal electroshock test (MES Test)
Type: in vivo
Details: Mus musculus, po, pre-treatment time −1 h, read-out: %-Protection; for responders at 50 mg/kg: p.o.; for responders at 25 mg/kg: p.o. (footnote b)
In short: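 Readout: fraction of five OF1 mice protected, meaning seizure duration 3 s or less, after a 50 Hz, 18 mA, 0.2 s temporal-electrode shock. Dosing was oral, usually 50 mg/kg, one hour beforehand; ED50 values were derived and post-shock blood taken for exposure.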

Row | Structure (SMILES) | responders at 50 mg/kg [%] | responders at 25 mg/kg [%]
1 | CCC(=O)N(n1c(=O)[nH]c2cc(C(F)(F)F)c(-c3ccnn3C(C)C)cc2c1=O)S(C)(=O)=O [Example 5.02, N-[6-(2-Isopropyl-2H-pyrazol-3-yl)-2,4-dioxo-7-trifluoromethyl-1,4-dihydro-2H-quinazolin-3-yl]-N-propionyl-methanesulfonamide] | 20 | –
2 | CCCC(=O)N(n1c(=O)[nH]c2cc(C(F)(F)F)c(-c3ccnn3C(C)C)cc2c1=O)S(C)(=O)=O [Example 5.03, N-Butyryl-N-[6-(2-isopropyl-2H-pyrazol-3-yl)-2,4-dioxo-7-trifluoromethyl-1,4-dihydro-2H-quinazolin-3-yl]-methanesulfonamide] | 40 | –
3 | CCCCCC(=O)N(n1c(=O)[nH]c2cc(C(F)(F)F)c(-c3ccnn3C(C)C)cc2c1=O)S(C)(=O)=O [Example 5.04, N-Hexanoyl-N-[6-(2-isopropyl-2H-pyrazol-3-yl)-2,4-dioxo-7-trifluoromethyl-1,4-dihydro-2H-quinazolin-3-yl]-methanesulfonamide] | 20 | –
4 | CC(C)C(=O)N(n1c(=O)[nH]c2cc(C(F)(F)F)c(-c3ccnn3C(C)C)cc2c1=O)S(C)(=O)=O [Example 5.05, N-Isobutyryl-N-[6-(2-isopropyl-2H-pyrazol-3-yl)-2,4-dioxo-7-trifluoromethyl-1,4-dihydro-2H-quinazolin-3-yl]-methanesulfonamide] | 60 | –
5 | CCOC(=O)N(n1c(=O)[nH]c2cc(C(F)(F)F)c(-c3ccnn3C(C)C)cc2c1=O)S(C)(=O)=O [Example 5.06, [6-(2-Isopropyl-2H-pyrazol-3-yl)-2,4-dioxo-7-trifluoromethyl-1,4-dihydro-2H-quinazolin-3-yl]-methanesulfonyl-carbamic acid ethyl ester] | 60 | –
6 | CCCOC(=O)N(n1c(=O)[nH]c2cc(C(F)(F)F)c(-c3ccnn3C(C)C)cc2c1=O)S(C)(=O)=O [Example 5.07, [6-(2-Isopropyl-2H-pyrazol-3-yl)-2,4-dioxo-7-trifluoromethyl-1,4-dihydro-2H-quinazolin-3-yl]-methanesulfonyl-carbamic acid propyl ester] | 40 | –
7 | CCCCOC(=O)N(n1c(=O)[nH]c2cc(C(F)(F)F)c(-c3ccnn3C(C)C)cc2c1=O)S(C)(=O)=O [Example 5.08, [6-(2-Isopropyl-2H-pyrazol-3-yl)-2,4-dioxo-7-trifluoromethyl-1,4-dihydro-2H-quinazolin-3-yl]-methanesulfonyl-carbamic acid butyl ester] | 100 | –
8 | CC(C)COC(=O)N(n1c(=O)[nH]c2cc(C(F)(F)F)c(-c3ccnn3C(C)C)cc2c1=O)S(C)(=O)=O [Example 5.09, [6-(2-Isopropyl-2H-pyrazol-3-yl)-2,4-dioxo-7-trifluoromethyl-1,4-dihydro-2H-quinazolin-3-yl]-methanesulfonyl-carbamic acid isobutyl ester] | 40 | –
9 | COCCOC(=O)N(n1c(=O)[nH]c2cc(C(F)(F)F)c(-c3ccnn3C(C)C)cc2c1=O)S(C)(=O)=O [Example 5.10, [6-(2-Isopropyl-2H-pyrazol-3-yl)-2,4-dioxo-7-trifluoromethyl-1,4-dihydro-2H-quinazolin-3-yl]-methanesulfonyl-carbamic acid 2-methoxy-ethyl ester] | 20 | –
10 | CCOC(=O)CCCC(=O)N(n1c(=O)[nH]c2cc(C(F)(F)F)c(-c3ccnn3C(C)C)cc2c1=O)S(C)(=O)=O [Example 5.11, 5-{[6-(2-Isopropyl-2H-pyrazol-3-yl)-2,4-dioxo-7-trifluoromethyl-1,4-dihydro-2H-quinazolin-3-yl]-methanesulfonyl-amino}-5-oxo-pentanoic acid ethyl ester] | 40 | –
11 | CCOC(=O)CC(=O)N(n1c(=O)[nH]c2cc(C(F)(F)F)c(-c3ccnn3C(C)C)cc2c1=O)S(C)(=O)=O [Example 5.12, 3-{[6-(2-Isopropyl-2H-pyrazol-3-yl)-2,4-dioxo-7-trifluoromethyl-1,4-dihydro-2H-quinazolin-3-yl]-methanesulfonyl-amino}-3-oxo-propionic acid ethyl ester] | 40 | –
12 | CSCCC(=O)N(n1c(=O)[nH]c2cc(C(F)(F)F)c(-c3ccnn3C(C)C)cc2c1=O)S(C)(=O)=O [Example 5.13, N-[6-(2-Isopropyl-2H-pyrazol-3-yl)-2,4-dioxo-7-trifluoromethyl-1,4-dihydro-2H-quinazolin-3-yl]-N-(3-methylsulfanyl-propionyl)-methanesulfonamide] | 40 | –
13 | CC(=O)N(n1c(=O)[nH]c2cc(C(F)F)c(-c3ccnn3C(C)C)cc2c1=O)S(C)(=O)=O [Example 6.01, N-Acetyl-N-[7-difluoromethyl-6-(2-isopropyl-2H-pyrazol-3-yl)-2,4-dioxo-1,4-dihydro-2H-quinazolin-3-yl]-methanesulfonamide] | 40 | 20
14 | CCCC(=O)N(n1c(=O)[nH]c2cc(C(F)F)c(-c3ccnn3C(C)C)cc2c1=O)S(C)(=O)=O [Example 6.02, N-Butyryl-N-[7-difluoromethyl-6-(2-isopropyl-2H-pyrazol-3-yl)-2,4-dioxo-1,4-dihydro-2H-quinazolin-3-yl]-methanesulfonamide] | 40 | 0
15 | CCCCC(=O)N(n1c(=O)[nH]c2cc(C(F)F)c(-c3ccnn3C(C)C)cc2c1=O)S(C)(=O)=O [Example 6.03, N-[7-Difluoromethyl-6-(2-isopropyl-2H-pyrazol-3-yl)-2,4-dioxo-1,4-dihydro-2H-quinazolin-3-yl]-N-pentanoyl-methanesulfonamide] | 40 | 0
16 | CCCOC(=O)N(n1c(=O)[nH]c2cc(C(F)F)c(-c3ccnn3C(C)C)cc2c1=O)S(C)(=O)=O [Example 6.04, [7-Difluoromethyl-6-(2-isopropyl-2H-pyrazol-3-yl)-2,4-dioxo-1,4-dihydro-2H-quinazolin-3-yl]-methanesulfonyl-carbamic acid propyl ester] | 20 | 0
17 | CCC(=O)N(n1c(=O)[nH]c2cc(C(F)F)c(-c3ccnn3C(C)C)cc2c1=O)S(C)(=O)=O [Example 6.05, N-[7-Difluoromethyl-6-(2-isopropyl-2H-pyrazol-3-yl)-2,4-dioxo-1,4-dihydro-2H-quinazolin-3-yl]-N-propionyl-methanesulfonamide] | 80 | 60
18 | CCOC(=O)N(n1c(=O)[nH]c2cc(C(F)F)c(-c3ccnn3C(C)C)cc2c1=O)S(C)(=O)=O [Example 6.06, [7-Difluoromethyl-6-(2-isopropyl-2H-pyrazol-3-yl)-2,4-dioxo-1,4-dihydro-2H-quinazolin-3-yl]-methanesulfonyl-carbamic acid ethyl ester] | 60 | 20
19 | COCCOC(=O)N(n1c(=O)[nH]c2cc(C(F)F)c(-c3ccnn3C(C)C)cc2c1=O)S(C)(=O)=O [Example 6.07, [7-Difluoromethyl-6-(2-isopropyl-2H-pyrazol-3-yl)-2,4-dioxo-1,4-dihydro-2H-quinazolin-3-yl]-methanesulfonyl-carbamic acid 2-methoxy-ethyl ester] | 40 | –
20 | Cc1nccn1-c1cc2c(=O)n(NS(C)(=O)=O)c(=O)[nH]c2cc1C(F)(F)F [Example 7.0, N-[6-(2-Methyl-imidazol-1-yl)-2,4-dioxo-7-trifluoromethyl-1,4-dihydro-2H-quinazolin-3-yl]-methanesulfonamide] | 0 | –
